Measured values as given in patent US9512425B2, “Inhibiting migration of cancer cells” (Cornell University, priority 2012, dated 2016).

System: MDA-MB-231 (MDA)
Assay: Wound healing / transwell migration of MDA cells stably expressing miR-708
Assay type: cell-based, human
Settings: MDA cells stably expressing miR-708 (lentiviral) vs controls
Excerpt: To express miRNA-708 in cells, about 500 bp of pri-miRNA containing the mature miR-708 sequence 5′-[…]-3′ (SEQ ID NO: 2) was amplified and cloned into the pZEO lentiviral construct in fusion with a GFP reporter as described (Ryu et al., 2011). miRNA sponge was generated according to (Ebert et al., 2007). Briefly, the sponge contains twelve miR-708 binding sites, 5′-[…]-3′ (SEQ ID NO: 3) which is fused with GFP and driven by an EF1α promoter. In particular, miRNA-708 was designed and cloned into the Xho I/EcoR I site of the lentiviral vector. To express miRNA-708 inducibly in cells, a doxycycline inducible construct was generated. […]
Cells were plated in triplicate into 6-well plates (5×10^5 cell/well) and cultured in DMEM containing 10% FBS. […] Cell migration was photographed and measured under phase-contrast microscopy. To measure cell migration after depletion of intracellular calcium, a scratch was made and the wound healing was monitored for 48 hr in the presence of 20 μM of BAPTA-AM (Invitrogen). The percentage of wound healed area was measured as a ratio of occupied area to the total area using Image J program (NIH).
For transwell assays, 10,000 cells were plated in triplicate on 8 micron inserts in 24 well plates containing DMEM. […] After staining, images were obtained using a computerized Zeiss microscope (Axiovert 200M) and analyzed using Axiovision 4.6 software (Carl Zeiss Inc.).

## miR-708: microRNA, mature sequence 5'-AAGGAGCUUACAAUCUAGCUGGG-3' (SEQ ID NO: 2); expressed from lentiviral vector or used as synthetic precursor
  migration rates: suppressed migration rates
